Assay results taken from patent US20070213359A1 (ACADIA Pharmaceuticals Inc., priority 2005, published 2007).
Like-named read-outs stand apart in the source and are kept apart here.

What was measured:
Ghrelin receptor = Ghrelin receptor (Homo sapiens, UniProt Q92847); experiment: Receptor Selection and Amplification Technology (R-SAT) assay; assay type: cell-based; parameters: expressed in transfected cells; host or cells: NIH3T3; settings: for IC50: '—' not defined (nd used separately), read-out: RSAT pIC50 (converted); for Emax: read-out: RSAT Eff(%)
Chain of Ghrelin receptor (Q92847 whole entry): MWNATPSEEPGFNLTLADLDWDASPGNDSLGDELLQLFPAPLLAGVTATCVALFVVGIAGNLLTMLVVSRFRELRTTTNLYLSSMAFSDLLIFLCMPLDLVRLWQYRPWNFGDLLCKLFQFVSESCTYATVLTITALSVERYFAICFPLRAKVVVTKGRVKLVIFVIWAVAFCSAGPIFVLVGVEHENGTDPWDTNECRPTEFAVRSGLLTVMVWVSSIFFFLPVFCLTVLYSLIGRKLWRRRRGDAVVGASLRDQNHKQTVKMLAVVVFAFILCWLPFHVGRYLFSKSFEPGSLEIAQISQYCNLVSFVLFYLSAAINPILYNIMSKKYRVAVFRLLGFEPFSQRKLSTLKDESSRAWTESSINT

GHSR1a receptor = molecular target: T1, GHSR1a receptor (Homo sapiens, UniProt Q92847); experiment: 125I-Ghrelin binding assay; settings: displacement of 125I-ghrelin (0.053 nM), membranes of HEK293 cells transfected with GHSR1a, Cheng-Prussoff, '—' not defined
T1 construct: expressed in transfected cells; host or cells: HEK293 (membranes)
T1 sequence (Q92847 whole entry): as above
Experimental: Plasmid DNA containing the GHSR1a receptor (12.5 ug/dish) in 0.675 ml DMEM was transfected into the cells by mixing with 180 ul PolyFect, 15 min later mixing in 2.25 ml 10% CS/DMEM, and transferring the mixture into the dish. At 16-18 h post transfection, medium was replaced with 25 ml fresh 10% FCS/1% PSG/DMEM to each dish for another 18-20 h. At approximately 48 hours post-transfection, cells were harvested in ice-cold membrane buffer (20 mM HEPES, 6 mM MgCl2, 1 mM EDTA, pH to 7.2) using a cell scraper, and pelleted by centrifugation.
Pelleted cells were added to a nitrogen cavitation chamber and 900 bar of pressure applied for 30 min. The pressure was slowly released the cavitated cells collected in 50 ml falcon tubes. The tubes were centrifuged at 1000 rpm, 4° C. for 10 min, and the supernatant collected. This centrifugation and collection was repeated two more times until the supernatant was free of precipitate (membranes are still in suspension). The supernatant was poured into a 50 ml centrifuge tube and centrifuged at 10.000 rpm, 4° C. for 20 min. The supernatant was discarded and the pellet re-suspended in 750 μl membrane binding buffer using a chilled 1 ml syringe with 25G5/8 needle to re-suspend membranes. The protein concentration was determined using the BioRad Protein Assay Dye Reagent according to the manufacturers instructions. The protein concentration was adjusted to 5 mg/ml and aliquots snap-frozed and stored at −80 C until use.
Membranes were thawed rapidly; diluted with binding buffer (25 mM Hepes+5 mM MgCl2, 1 mM CaCl2, 2.5 mM EDTA and 0.2% BSA) to a protein concentration of 0.8 ug/30 ul and placed on ice. 96-well plates (U-bottom wells) were prepared with serial dilutions (8 doses, 40 ul/w) of the test compounds. Membranes (30 uL/well) were then added, and incubated with test ligands for 30 min at room temperature with shaking. […] Binding was terminated by filtration through GF/B filters (presoaked with 0.1% polyethylenimine) with a Brandel 96-well harvester. The filters were washed with ice-cold binding buffer (150 ml/plate) and allowed to air-dry for 30 min. 50 ul MicroScient-20 cocktail was added to each dried well, the plates were sealed, and counted for 2 min/well using a TopCount scintillation counter (Packard).

[1] = negative logarithm of ligand concentration causing 50% inhibition of constitutive receptor response, transfected NIH3T3 cells
[2] = read-out: Binding pKi (converted)
[3] = percent inhibition at saturating ligand, normalized to reference ligand Substance P analog = 100%

Compound | IC50 (Ghrelin receptor; […]) | Emax (Ghrelin receptor) | Ki (GHSR1a receptor; Binding pKi) | IC50 (Ghrelin receptor; [1]) | Ki (GHSR1a receptor; [2]) | Emax (Ghrelin receptor; [3])
COc1cccc2c(C(=O)NCc3cccc(Cl)c3)cn(CCCN3C4CCC3CC(CCc3ccccc3)C4)c12 (stereo not drawn) | 1 nM | 115% | 7.94 nM | – | – | –
COc1cccc2c(C(=O)C3CC3)cn(CCCN3CCCN(Cc4ccc(F)cc4)CC3)c12 | 1.26 nM | 92% | 7.94 nM | – | – | –
COc1cccc2c(C(=O)NCc3cccc(C)c3)cn(CCCN3C4CCC3CC(CC(=O)c3ccccc3)C4)c12 (stereo not drawn) | 1.58 nM | 106% | 2 nM | – | – | –
CCCCC[C@H]1C[C@H]2CC[C@@H](C1)N2CCCn1cc(C(=O)NCc2cccc(C)c2)c2cccc(OC)c21 | 2 nM | 90% | 50.1 nM | – | – | –
COc1cccc2c(C(=O)NCc3cccc(C)c3)cn(CCCN3CCC(c4nc5ccccc5s4)CC3)c12 | 2.51 nM | 94% | 63.1 nM | – | – | –
COc1cccc2c(C(=O)NCc3cccc(C)c3)cn(CCCN3CCC(Oc4ccc(F)cc4)CC3)c12 | 3.16 nM | 81% | 100 nM | – | – | –
COc1cccc2c(C(=O)C3CC3)cn(CCCN3C4CCC3CC(CCc3ccc(Cl)cc3)C4)c12 (stereo not drawn) | 3.98 nM | 103% | 20 nM | – | – | –
COc1cccc2c(C(=O)C3CC3)cn(CCCN3C4CCC3CC(Oc3ccc(Cl)cc3)C4)c12 (stereo not drawn) | 3.98 nM | 86% | 158 nM | – | – | –
CC(=O)c1cn(CCCN2CCCN(CCc3ccccc3)CC2)c2c(Br)cccc12 | 3.98 nM | 98% | 79.4 nM | – | – | –
CCc1cccc2c(C(C)=O)cn(CCCN3C4CCC3CC(CCc3ccccc3)C4)c12 (stereo not drawn) | – | 103% | – | 3.98 nM | 126 nM | –
CC(=O)c1cn(CCCN2CCC(Oc3ccc(Cl)cc3)CC2)c2c(Br)cccc12 | – | – | – | 3.98 nM | 100 nM | 105%
COc1cccc2c(C(=O)NCc3cccc(C)c3)cn(CCCN3CCCN(Cc4ccc(F)cc4)CC3)c12 | 15.8 nM | 129% | 100 nM | – | – | –
COc1cccc2c(C(C)=O)cn(CCCN3CCC(N(C4CC4)S(=O)(=O)c4ccccc4)CC3)c12 | 15.8 nM | 105% | 2510 nM | – | – | –
COc1cccc2c(C(=O)c3ccccc3)cn(CCCN3CCCN(CCc4ccccc4)CC3)c12 | 15.8 nM | 124% | 25.1 nM | – | – | –
COc1cccc2c(C(=O)NCc3cccc(Cl)c3)cn(CCCN3CCCN(CCc4ccccc4)CC3)c12 | 20 nM | 125% | 158 nM | – | – | –
COc1cccc2c(C(=O)C3CC3)cn(CCCN3CCN(CCOc4ccc(Cl)cc4)CC3)c12 | 20 nM | 122% | 126 nM | – | – | –
COc1cccc2c(C(=O)NCc3cccc(C)c3)cn(CCCN3CCN(CCOc4ccccc4)CC3)c12 | 20 nM | 89% | 7.94 nM | – | – | –
COc1cccc2c(C(=O)NCC(C)C)cn(CCCN3CCCN(Cc4ccc(F)cc4)CC3)c12 | 25.1 nM | 118% | 100 nM | – | – | –
COc1cccc2c(C(=O)NCc3cccc(C)c3)cn(CCCN3CCN(Cc4ccc(Cl)cc4Cl)CC3)c12 | 25.1 nM | 110% | 1000 nM | – | – | –
COc1cccc2c(C(=O)Cc3ccccc3)cn(CCCN3CCC(CCOc4ccc(Cl)cc4)CC3)c12 | 25.1 nM | 121% | 251 nM | – | – | –
CCCCCC1CC2CCC(C1)N2CCCn1cc(C(C)=O)c2ccccc21 (stereo not drawn) | 31.6 nM | 104% | 1580 nM | – | – | –
COc1cccc2c(C(=O)NCc3cccc(Cl)c3)cn(CCCN3C4CCC3CC(Oc3ccc(F)cc3)C4)c12 (stereo not drawn) | 39.8 nM | 152% | 158 nM | – | – | –
COc1ccc2[nH]c3c(c2c1)CCN(CCCn1cc(C(C)=O)c2cccc(OC)c21)C3 | 50.1 nM | – | 1000 nM | – | – | 123%
COc1cccc2c(C(C)=O)cn(CCCN3C4CCC3CC(OCC3CC3)C4)c12 (stereo not drawn) | 50.1 nM | 113% | 1580 nM | – | – | –
COc1cccc2c(C(=O)C3CC3)cn(CCCN3CCC(Oc4ccccc4Cl)CC3)c12 | 50.1 nM | 102% | 3160 nM | – | – | –

Compound | IC50 (Ghrelin receptor; […]) | Emax (Ghrelin receptor) | Ki (GHSR1a receptor; Binding pKi) | IC50 (Ghrelin receptor; [1]) | Ki (GHSR1a receptor; [2]) | Emax (Ghrelin receptor; [3])
COc1cccc2c(C(=O)NCc3cccc(Cl)c3)cn(CCCN3CCC(Oc4ccc(Cl)cc4)CC3)c12 | 50.1 nM | 123% | 631 nM | – | – | –
CCCCC[C@H]1C[C@H]2CC[C@@H](C1)N2CCCn1cc(C(=O)NCc2cccc(Cl)c2)c2cccc(OC)c21 | 50.1 nM | 123% | 200 nM | – | – | –
COc1cccc2c(C(=O)NCc3cccc(Cl)c3)cn(CCCN3[C@@H]4CC[C@H]3C[C@@H](CC(=O)c3ccccc3)C4)c12 | 50.1 nM | 111% | 63.1 nM | – | – | –
COc1cccc2c(C(=O)NCc3cccc(Cl)c3)cn(CCCN3CCN(CCOc4ccccc4)CC3)c12 | 79.4 nM | 101% | 6.31 nM | – | – | –
COc1cccc2c(C(=O)NCc3cccc(C)c3)cn(CCCN3CCC(c4nc(-c5cccnc5)no4)CC3)c12 | 79.4 nM | 97% | 158 nM | – | – | –
COc1cccc2c(C(=O)NCc3cccc(Cl)c3)cn(CCCN3CCC(c4nc5ccccc5s4)CC3)c12 | 79.4 nM | 112% | 251 nM | – | – | –
COc1cccc2c(C(=O)NCc3cccc(Cl)c3)cn(CCCN3C4CCC3CC(CC(=O)c3ccccc3)C4)c12 (stereo not drawn) | 79.4 nM | 104% | 200 nM | – | – | –
COc1cccc2c(C(=O)NCC(C)C)cn(CCCN3CCCN(CCc4ccccc4)CC3)c12 | 100 nM | 114% | 794 nM | – | – | –
CCCCC[C@H]1C[C@H]2CC[C@@H](C1)N2CCCn1cc(C(C)=O)c2ccccc21 | 100 nM | 118% | 2510 nM | – | – | –
CCCOC1CCN(CCCn2cc(C(=O)CC)c3cc(Br)ccc32)CC1 | 158 nM | 90% | 10000 nM | – | – | –
COc1cccc2c(C(=O)NCc3cccc(Cl)c3)cn(CCCNCCOc3ccccc3)c12 | 251 nM | 120% | 39.8 nM | – | – | –
COc1cccc2c(C(=O)NCc3cccc(Cl)c3)cn(CCCN3CCN(CCOc4ccc(Cl)cc4)CC3)c12 | 251 nM | 104% | 15.8 nM | – | – | –
Cc1cccc(CNC(=O)c2cn(CCCN3C4CCC3CC(CCc3ccccc3)C4)c3ccccc23)c1 (stereo not drawn) | 316 nM | 108% | 631 nM | – | – | –
CC(=O)c1cn(CCCN2[C@@H]3CC[C@H]2C[C@@H](Oc2ccc(Cl)cc2)C3)c2ccccc12 | 398 nM | 107% | 7940 nM | – | – | –
COc1cccc2c(C(=O)NCc3cccc(C)c3)cn(CCCNC3Cc4ccccc4C3)c12 | 398 nM | 84% | 79.4 nM | – | – | –
COc1cccc2c(C(=O)NCc3cccc(C)c3)cn(CCCN3CCN(CCOc4ccc(Cl)cc4)CC3)c12 | 501 nM | 79% | 126 nM | – | – | –
COc1cccc2c(C(=O)NCc3cccc(Cl)c3)cn(CCCNC3Cc4ccccc4C3)c12 | 794 nM | 133% | 63.1 nM | – | – | –
COc1cccc2c(C(=O)c3ccccc3)cn(CCCN3CCN(CCOc4ccc(Cl)cc4)CC3)c12 | 1000 nM | 66% | 126 nM | – | – | –
COc1cccc2c(C(=O)NCc3cccc(C)c3)cn(CCCNCCOc3ccccc3)c12 | – | 52% | 100 nM | – | – | –
COc1cccc2c(C(=O)NCC(C)C)cn(CCCN3CCC(CCOc4ccc(Cl)cc4)CC3)c12 | – | 45% | 158 nM | – | – | –
COc1cccc2c(C(=O)NCc3cccc(Cl)c3)cn(CCCN3CCC(CCOc4ccc(Cl)cc4)CC3)c12 | – | 46% | 251 nM | – | – | –
CC(=O)c1c(C)n(CCCN2CCC(Oc3cccc(Cl)c3)CC2)c2c(Br)cccc12 | – | – | – | – | 631 nM | 35%
CC(=O)c1cn(CCCN2CCCC(Cc3ccccc3Cl)C2)c2c(C#N)cccc12 (stereo not drawn) | – | – | – | – | 794 nM | 22%
CC(=O)c1c(C)n(CCCN2C3CCC2CC(Oc2ccc(F)cc2)C3)c2c(Br)cccc12 (stereo not drawn) | – | – | – | – | 1580 nM | 1%
